Experiment [1] has as its target Human ACC2 (Homo sapiens, UniProt O00763). Kind of experiment: In vitro ACC2 inhibition assay (ADP-Glo), human ACC2. To be noted: 5 nM ACC2, 20 μM ATP, 20 μM acetyl-CoA. Format: biochemical. For orientation: In ADP-Glo the light output rises with the ADP produced.
In experiment [2] the test system is C. albicans ATCC 90028. Description: Anti-Fungal Activity Assay (broth microtiter MIC), C. albicans. Format: cell-based, Candida albicans. The note with it: Candida albicans, ATCC90028, 48 h, 3 replicates; MIC recorded at 48 h; read-out: MIC C. albicans ATCC 90028. An outline of the steps:
(§1)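 Broth microdilution per CLSI M27-A3 in RPMI 1640+MOPS, inoculum from overnight Sabouraud dextrose agar colonies at 35° C; compounds from 1 mg/mL DMSO stocks. MIC read visually against growth control at 48 h, with an added 24 h reading for soraphen.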

In experiment [3] the test system is C. krusei ATCC 6258. Description: Anti-Fungal Activity Assay (broth microtiter MIC), C. krusei. The note with it: Pichia kudriavzevii, ATCC6258, 48 h, 3 replicates; MIC recorded at 48 h; read-out: MIC C. krusei ATCC 6258. It is filed as cell-based, Candida krusei. An outline of the steps: as §1
For experiment [4], the system named is C. parapsilosis ATCC 22019. Description: Anti-Fungal Activity Assay (broth microtiter MIC), C. parapsilosis. Format: cell-based, Candida parapsilosis. To be noted: Lodderomyces parapsilosis, ATCC22019, 48 h, 3 replicates; MIC recorded at 48 h; read-out: MIC C. parapsilosis ATCC 22019. The essentials:
as §1

For experiment [5], the target named is Fungal ACC2 (UniProt Q00955). To be noted: read-out: Fungal ACC2 (IC50, in vitro ACC2 inhibition).
Sequence of Fungal ACC2 (Q00955 whole entry): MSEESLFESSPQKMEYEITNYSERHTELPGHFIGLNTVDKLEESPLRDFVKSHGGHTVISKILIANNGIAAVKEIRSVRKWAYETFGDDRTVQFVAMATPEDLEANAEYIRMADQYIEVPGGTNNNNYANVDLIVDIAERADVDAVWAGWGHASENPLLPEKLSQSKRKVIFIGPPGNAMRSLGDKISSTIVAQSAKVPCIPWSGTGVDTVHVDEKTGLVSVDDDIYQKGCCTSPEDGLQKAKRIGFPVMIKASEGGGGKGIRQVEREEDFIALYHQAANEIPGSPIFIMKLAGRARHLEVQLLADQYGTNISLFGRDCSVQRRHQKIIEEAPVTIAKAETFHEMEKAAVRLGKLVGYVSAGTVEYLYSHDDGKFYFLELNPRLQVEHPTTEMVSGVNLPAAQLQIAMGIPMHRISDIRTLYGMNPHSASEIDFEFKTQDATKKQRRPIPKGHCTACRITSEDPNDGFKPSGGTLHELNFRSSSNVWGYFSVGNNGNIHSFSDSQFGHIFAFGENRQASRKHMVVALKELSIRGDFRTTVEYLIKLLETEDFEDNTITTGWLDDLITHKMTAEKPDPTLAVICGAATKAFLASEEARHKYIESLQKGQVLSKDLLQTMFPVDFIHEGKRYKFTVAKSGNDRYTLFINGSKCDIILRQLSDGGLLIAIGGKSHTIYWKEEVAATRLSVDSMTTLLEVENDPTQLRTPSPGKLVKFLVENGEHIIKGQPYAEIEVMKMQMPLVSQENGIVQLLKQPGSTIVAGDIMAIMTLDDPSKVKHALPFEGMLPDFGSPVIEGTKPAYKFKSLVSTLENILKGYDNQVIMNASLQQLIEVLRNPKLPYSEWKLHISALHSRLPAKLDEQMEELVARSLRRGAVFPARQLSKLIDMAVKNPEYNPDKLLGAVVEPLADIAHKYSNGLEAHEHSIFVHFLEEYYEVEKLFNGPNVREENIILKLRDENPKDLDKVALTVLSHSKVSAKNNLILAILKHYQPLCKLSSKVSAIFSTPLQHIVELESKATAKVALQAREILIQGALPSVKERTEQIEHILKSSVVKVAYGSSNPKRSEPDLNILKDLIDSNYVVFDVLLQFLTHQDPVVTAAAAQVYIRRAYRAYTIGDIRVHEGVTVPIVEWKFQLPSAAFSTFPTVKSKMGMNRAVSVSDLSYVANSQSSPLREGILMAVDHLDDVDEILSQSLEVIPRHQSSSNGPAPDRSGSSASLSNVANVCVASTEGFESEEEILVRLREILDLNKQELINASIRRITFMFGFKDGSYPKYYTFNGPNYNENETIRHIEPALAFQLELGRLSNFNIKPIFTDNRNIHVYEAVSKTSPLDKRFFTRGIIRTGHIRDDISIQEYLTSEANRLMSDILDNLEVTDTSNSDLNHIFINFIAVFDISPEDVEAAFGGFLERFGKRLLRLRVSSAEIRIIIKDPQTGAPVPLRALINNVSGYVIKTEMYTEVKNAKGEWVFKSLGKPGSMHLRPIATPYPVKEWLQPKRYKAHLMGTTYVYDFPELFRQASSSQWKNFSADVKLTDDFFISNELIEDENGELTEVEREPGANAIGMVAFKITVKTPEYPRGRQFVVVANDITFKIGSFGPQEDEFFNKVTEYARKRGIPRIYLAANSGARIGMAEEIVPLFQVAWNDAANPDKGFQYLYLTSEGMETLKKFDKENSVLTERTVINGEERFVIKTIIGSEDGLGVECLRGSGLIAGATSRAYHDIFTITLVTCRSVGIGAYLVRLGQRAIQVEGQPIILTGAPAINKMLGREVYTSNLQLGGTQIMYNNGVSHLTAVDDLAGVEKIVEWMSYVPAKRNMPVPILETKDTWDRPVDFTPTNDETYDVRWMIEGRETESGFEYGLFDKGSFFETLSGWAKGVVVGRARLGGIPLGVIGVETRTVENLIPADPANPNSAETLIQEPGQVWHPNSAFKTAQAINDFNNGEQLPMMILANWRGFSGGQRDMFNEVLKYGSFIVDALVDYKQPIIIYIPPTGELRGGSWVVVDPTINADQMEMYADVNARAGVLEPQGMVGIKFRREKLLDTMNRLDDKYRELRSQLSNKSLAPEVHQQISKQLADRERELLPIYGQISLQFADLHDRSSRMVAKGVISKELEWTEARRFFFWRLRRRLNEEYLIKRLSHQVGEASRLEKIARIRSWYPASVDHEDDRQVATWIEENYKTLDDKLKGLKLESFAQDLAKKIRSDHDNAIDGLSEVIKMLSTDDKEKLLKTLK

Values after ≈ are worked out from the molar mass of the structure shown.

Sequence of Human ACC2 (O00763 whole entry): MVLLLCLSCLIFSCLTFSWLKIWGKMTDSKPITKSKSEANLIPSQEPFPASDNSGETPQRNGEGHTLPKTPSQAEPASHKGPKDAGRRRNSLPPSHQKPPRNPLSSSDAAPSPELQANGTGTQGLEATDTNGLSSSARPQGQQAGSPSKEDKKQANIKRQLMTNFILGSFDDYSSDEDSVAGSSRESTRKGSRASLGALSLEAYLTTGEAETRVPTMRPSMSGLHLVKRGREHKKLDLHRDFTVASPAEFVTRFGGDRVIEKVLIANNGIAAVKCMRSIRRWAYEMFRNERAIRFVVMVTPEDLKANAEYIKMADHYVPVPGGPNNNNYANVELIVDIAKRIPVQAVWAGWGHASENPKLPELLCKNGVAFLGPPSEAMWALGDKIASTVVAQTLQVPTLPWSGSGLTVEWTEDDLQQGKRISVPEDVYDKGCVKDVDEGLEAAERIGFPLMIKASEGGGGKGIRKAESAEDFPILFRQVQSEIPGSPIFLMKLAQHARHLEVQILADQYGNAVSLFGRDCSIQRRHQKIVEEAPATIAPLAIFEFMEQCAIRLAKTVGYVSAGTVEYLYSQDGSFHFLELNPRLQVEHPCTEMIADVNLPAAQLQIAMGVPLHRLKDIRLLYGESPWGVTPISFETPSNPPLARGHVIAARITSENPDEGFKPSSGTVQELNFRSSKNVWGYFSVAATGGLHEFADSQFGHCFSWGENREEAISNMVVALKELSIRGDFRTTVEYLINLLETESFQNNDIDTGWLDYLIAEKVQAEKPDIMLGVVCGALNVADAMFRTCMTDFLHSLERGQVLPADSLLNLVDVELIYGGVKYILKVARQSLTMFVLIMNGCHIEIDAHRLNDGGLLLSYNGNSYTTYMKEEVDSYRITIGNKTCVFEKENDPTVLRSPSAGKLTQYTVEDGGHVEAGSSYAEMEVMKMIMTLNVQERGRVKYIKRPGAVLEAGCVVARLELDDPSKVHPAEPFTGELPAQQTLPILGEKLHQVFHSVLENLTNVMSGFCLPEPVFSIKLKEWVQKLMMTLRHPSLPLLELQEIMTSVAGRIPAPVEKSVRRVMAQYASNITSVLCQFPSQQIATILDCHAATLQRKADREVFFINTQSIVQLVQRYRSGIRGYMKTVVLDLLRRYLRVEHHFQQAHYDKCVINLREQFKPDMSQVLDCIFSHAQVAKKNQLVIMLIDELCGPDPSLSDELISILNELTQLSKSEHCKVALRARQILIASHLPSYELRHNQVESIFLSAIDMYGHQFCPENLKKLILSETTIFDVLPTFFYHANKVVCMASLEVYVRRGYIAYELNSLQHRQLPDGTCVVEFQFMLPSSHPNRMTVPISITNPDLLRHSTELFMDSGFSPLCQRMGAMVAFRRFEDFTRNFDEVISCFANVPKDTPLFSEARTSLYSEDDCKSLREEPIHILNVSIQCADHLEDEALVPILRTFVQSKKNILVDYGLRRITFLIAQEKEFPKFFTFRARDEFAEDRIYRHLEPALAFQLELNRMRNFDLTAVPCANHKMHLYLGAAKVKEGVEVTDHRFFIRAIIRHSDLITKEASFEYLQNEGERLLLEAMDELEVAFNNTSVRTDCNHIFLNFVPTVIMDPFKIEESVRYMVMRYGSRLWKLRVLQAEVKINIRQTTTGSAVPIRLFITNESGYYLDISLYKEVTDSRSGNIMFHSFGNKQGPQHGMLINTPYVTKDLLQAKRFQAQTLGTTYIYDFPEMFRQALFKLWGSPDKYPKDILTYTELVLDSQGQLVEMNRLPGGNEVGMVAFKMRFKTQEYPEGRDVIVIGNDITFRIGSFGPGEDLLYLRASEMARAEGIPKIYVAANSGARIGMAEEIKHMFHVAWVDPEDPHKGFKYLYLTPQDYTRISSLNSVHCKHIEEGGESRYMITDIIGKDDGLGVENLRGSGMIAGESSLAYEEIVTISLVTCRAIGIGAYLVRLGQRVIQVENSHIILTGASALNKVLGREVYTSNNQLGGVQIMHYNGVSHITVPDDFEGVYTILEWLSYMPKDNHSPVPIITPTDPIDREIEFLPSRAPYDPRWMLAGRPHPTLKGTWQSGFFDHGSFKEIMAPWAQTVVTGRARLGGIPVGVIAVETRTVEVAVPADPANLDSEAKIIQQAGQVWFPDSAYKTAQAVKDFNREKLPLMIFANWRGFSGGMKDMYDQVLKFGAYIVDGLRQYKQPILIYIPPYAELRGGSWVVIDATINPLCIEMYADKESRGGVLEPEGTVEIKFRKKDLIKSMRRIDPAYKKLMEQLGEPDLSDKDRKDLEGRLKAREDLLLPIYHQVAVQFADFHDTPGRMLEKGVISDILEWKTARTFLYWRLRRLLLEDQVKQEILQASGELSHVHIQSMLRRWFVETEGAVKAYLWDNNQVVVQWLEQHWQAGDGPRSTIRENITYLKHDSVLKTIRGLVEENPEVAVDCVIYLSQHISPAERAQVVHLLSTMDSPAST

What is called IC50 is the midpoint of a concentration-inhibition curve. As a reminder, the MIC is the least concentration at which growth counts as inhibited. Regarding `COc1ccc(F)cc1[C@H](Cn1c(=O)n([C@H]2CCN(C)C2=O)c(=O)c2c(C)c(-n3nccn3)sc21)OCCCO` [Compound I-154, 1-((R)-2-(5-fluoro-2-methoxyphenyl)-2-(3-hydroxy-propoxy)ethyl)-5-methyl-3-((S)-1-methyl-2-oxopyrrolidin-3-yl)-6-(2H-1,2,3-triazol-2-yl)thieno[2,3-d]pyrimidine-2,4(1H,3H)-dione], the IC50 was 2 to 10 nM in experiment [1] and 0.7 to 2 nM in experiment [5]. Also, the minimum inhibitory concentration (MIC) in experiment [2] lay within 2.1 to 4 µg/mL (≈ 3.67 to 6.99 µM); in experiment [3] it was 0.25 to 1 µg/mL (≈ 0.437 to 1.75 µM); in experiment [4] it was 2.1 to 4 µg/mL (≈ 3.67 to 6.99 µM).
Take `COCCO[C@@H](Cn1c(=O)n([C@@]2(C)CCCN(C)C2=O)c(=O)c2c(C)c(-n3nccn3)sc21)c1cc(F)ccc1OC` [Compound I-130, 3-((S)-1,3-dimethyl-2-oxopiperidin-3-yl)-1-((R)-2-(5-fluoro-2-methoxyphenyl)-2-(2-methoxyethoxy)ethyl)-5-methyl-6-(2H-1,2,3-triazol-2-yl)thieno[2,3-d]pyrimidine-2,4(1H,3H)-dione]: the IC50 in experiment [1] was 100 to 1000 nM; in experiment [5], 2 to 10 nM. The minimal inhibitory concentration (MIC) in experiment [2], in experiment [3] and in experiment [4] was 2.1 to 4 µg/mL (≈ 3.5 to 6.66 µM) in each case.
On to `COc1ccc(F)cc1[C@H](Cn1c(=O)n([C@@H]2CC(=O)N(C)C2)c(=O)c2c(C)c(-n3nccn3)sc21)OCCO` [Compound I-93, 1-((R)-2-(5-fluoro-2-methoxyphenyl)-2-(2-hydroxy-ethoxy)ethyl)-5-methyl-3-((R)-1-methyl-5-oxopyrrolidin-3-yl)-6-(2H-1,2,3-triazol-2-yl)thieno[2,3-d]pyrimidine-2,4(1H, 3H)-dione], for which the half-maximal inhibitory concentration (IC50) is 2 to 10 nM in experiment [1] and 0.7 to 2 nM in experiment [5]. In addition, the MIC in experiment [2], in experiment [3] and in experiment [4] was 2.1 to 4 µg/mL (≈ 3.76 to 7.16 µM) each time.
Turning to `COc1ccc(F)cc1[C@H](Cn1c(=O)n([C@@H]2CCNC2=O)c(=O)c2c(C)c(-n3nccn3)sc21)O[C@H]1CC[C@@H](O)CC1` [Compound I-188, 1-((R)-2-(5-fluoro-2-methoxyphenyl)-2-(((1 s, 4S)-4-hydroxycyclohexyl)oxy)ethyl)-5-methyl-3-((R)-2-oxopyrrolidin-3-yl)-6-(2H-1,2,3-triazol-2-yl)thieno[2,3-d]pyrimidine-2,4(1H3H)-dione], the IC50 in experiment [1] lay within 2 to 10 nM; in experiment [5], 0.7 to 2 nM. The minimal inhibitory concentration (MIC) in experiment [2] was 0.25 to 1 µg/mL (≈ 0.418 to 1.67 µM); in experiment [3], 0.25 to 1 µg/mL (≈ 0.418 to 1.67 µM); in experiment [4], 1.1 to 2 µg/mL (≈ 1.84 to 3.34 µM).
Take `COCCO[C@@H](Cn1c(=O)n(C2CCNC2=O)c(=O)c2c(C)c(-n3nccn3)sc21)c1cc(F)ccc1OC` (stereo partly drawn) [Compound I-1, 1-((R)-2-(5-fluoro-2-methoxyphenyl)-2-(2-methoxyethoxy)ethyl)-5-methyl-3-(2-oxopyrrolidin-3-yl)-6-(2H-1,2,3-triazol-2-yl)thieno[2,3-d]pyrimidine-2,4(1H,3H)-dione]: the IC50 in experiment [1] is 2 to 10 nM; in experiment [5] it was 0.7 to 2 nM. In addition, the minimal inhibitory concentration (MIC) in experiment [2], in experiment [3] and in experiment [4] was 2.1 to 4 µg/mL (≈ 3.76 to 7.16 µM) each time.
Regarding `COc1ccccc1C(=O)Cn1c(=O)n([C@@H]2CCN(C)C2=O)c(=O)c2c(C)c(-n3nccn3)sc21` [Compound I-167, (R)-1-(2-(2-methoxyphenyl)-2-oxoethyl)-5-methyl-3-(1-methyl-2-oxopyrrolidin-3-yl)-6-(2H-1,2,3-triazol-2-yl)thieno[2,3-d]pyrimidine-2,4(1H,3H)-dione], the IC50 lay in the range of 100 to 1000 nM in experiment [1] and 10 to 100 nM in experiment [5]. The MIC in experiment [2], in experiment [3] and in experiment [4] was 2.1 to 4 µg/mL (≈ 4.25 to 8.09 µM) each time.
Regarding `COCCO[C@@H](Cn1c(=O)n(CCN2CCCC2=O)c(=O)c2c(C)c(-n3nccn3)sc21)c1cc(F)ccc1OC` [Compound I-99, (R)-1-(2-(5-fluoro-2-methoxyphenyl)-2-(2-methoxy-ethoxy)ethyl)-5-methyl-3-(2-(2-oxopyrrolidin-1-yl)ethyl)-6-(2H-1,2,3-triazol-2-yl)thieno[2,3-d]pyrimidine-2,4(1H,3H)-dione], the IC50 in experiment [1] lay within 10 to 100 nM; in experiment [5], 0.7 to 2 nM. The MIC in experiment [2], in experiment [3] and in experiment [4] was 2.1 to 4 µg/mL (≈ 3.58 to 6.82 µM) throughout.

These data come from patent US20190330224A1, “ACC INHIBITORS AND USES THEREOF” (Gilead Apollo, LLC, priority 2015, published 2019).
